For seven compounds, Activity and IC50 results are on record in ChEMBL document CHEMBL1155565, “Apramides A-G, novel lipopeptides from the marine cyanobacterium Lyngbya majuscula” (J Nat Prod, 2000).

The subject of one experiment is KB. Put plainly: Cytotoxicity against human KB cells. The experiment is classed as functional, cell-based.
The test system of another experiment is LoVo. Put plainly: Cytotoxicity against human LoVo cells. The experiment is classed as functional, cell-based.
Experiment [1] in a line: Inhibition of trypsin.
Experiment [2] is described as follows: Inhibition of chymotrypsin.
For the next experiment, the target named is T1, Papain (Carica papaya) (UniProt P00784).
T1 sequence (whole entry): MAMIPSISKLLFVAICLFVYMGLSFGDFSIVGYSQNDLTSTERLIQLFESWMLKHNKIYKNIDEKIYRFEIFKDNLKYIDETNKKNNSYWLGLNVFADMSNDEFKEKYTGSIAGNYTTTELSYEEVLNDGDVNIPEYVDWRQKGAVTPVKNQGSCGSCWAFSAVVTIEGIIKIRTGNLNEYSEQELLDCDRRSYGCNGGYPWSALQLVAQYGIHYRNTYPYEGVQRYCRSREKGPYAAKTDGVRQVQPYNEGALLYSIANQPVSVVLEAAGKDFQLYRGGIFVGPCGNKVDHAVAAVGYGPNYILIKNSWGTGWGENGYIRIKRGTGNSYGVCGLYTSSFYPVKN
The experiment can be described thus: Inhibition of Papaya papain.

Experiment [3] in a line: Inhibition of elastase.
Experiment [4] deals with Prothrombin (Homo sapiens) (UniProt P00734). The experiment can be described thus: Inhibition of thrombin.
Experiment [5] can be described thus: Induction of elastase activity.

As usually defined, the IC50 is the concentration that inhibits the measured activity by half. Read a high IC50 as a need for much substance.

Values after ≈ are worked out from the molar mass of the structure shown. Active and inactive are the calls of the source. The rule behind the calls is not given here. Square brackets hold non-standard residues; d marks the D form. Peptide text beside a SMILES is read from it. * marks the point of attachment. Octanoyl(2R-Me,7,8-dehydro) = C=CCCCC[C@@H](C)C(=O)*; Oct7ynoyl(2R-Me) = C#CCCCC[C@@H](C)C(=O)*; NMeY = CN[C@@H](Cc1ccc(O)cc1)C(=O)O; Oct(7)ynoyl = C#CCCCCCC(=O)*; NMeV = CN[C@H](C(=O)O)C(C)C; X2 = c1csc([C@@H]2CCCN2*)n1; NMeA = CN[C@@H](C)C(=O)O; X1 = CN(Cc1nccs1)*

As for `C#CCCCC[C@@H](C)C(=O)N(C)[C@@H](C)C(=O)N(C)[C@H](C(=O)N1CCC[C@H]1C(=O)N(C)[C@H](C(=O)N(C)[C@H](C(=O)N(C)[C@@H](Cc1ccc(OC)cc1)C(=O)N(C)Cc1nccs1)C(C)C)C(C)C)C(C)C` ({Oct7ynoyl(2R-Me)}-[NMeA][NMeV]P[NMeV][NMeV][NMeY](Me)-X1), the outcome (with KB; with LoVo; in experiment [3]) was inactive. Besides, the result (in experiment [1]; in experiment [2]; on Papain (Carica papaya); in experiment [4]; in experiment [5]) was Active.
`C#CCCCC[C@@H](C)C(=O)N(C)[C@@H](C)C(=O)N(C)[C@H](C(=O)N1CCC[C@H]1C(=O)N(C)[C@H](C(=O)N(C)[C@H](C(=O)N(C)[C@@H](Cc1ccc(OC)cc1)C(=O)N1CCC[C@H]1c1nccs1)C(C)C)C(C)C)C(C)C` ({Oct7ynoyl(2R-Me)}-[NMeA][NMeV]P[NMeV][NMeV][NMeY](Me)-X2): the outcome in the experiment with KB and in the experiment with LoVo was inactive.
`C#CCCCCCC(=O)N(C)[C@@H](C)C(=O)N(C)[C@H](C(=O)N1CCC[C@H]1C(=O)N(C)[C@H](C(=O)N(C)[C@H](C(=O)N(C)[C@@H](Cc1ccc(OC)cc1)C(=O)N(C)Cc1nccs1)C(C)C)C(C)C)C(C)C` ({Oct(7)ynoyl}-[NMeA][NMeV]P[NMeV][NMeV][NMeY](Me)-X1): the result in the experiment on KB and in the experiment on LoVo was inactive.
`C#CCCCCCC(=O)N(C)[C@@H](C)C(=O)N(C)[C@H](C(=O)N1CCC[C@H]1C(=O)N(C)[C@H](C(=O)N(C)[C@H](C(=O)N(C)[C@@H](Cc1ccc(OC)cc1)C(=O)N1CCC[C@H]1c1nccs1)C(C)C)C(C)C)C(C)C` ({Oct(7)ynoyl}-[NMeA][NMeV]P[NMeV][NMeV][NMeY](Me)-X2): the result in the experiment with KB and in the experiment on LoVo was inactive.
Turning to `C=CCCCC[C@@H](C)C(=O)N(C)[C@@H](C)C(=O)N(C)[C@H](C(=O)N1CCC[C@H]1C(=O)N(C)[C@H](C(=O)N(C)[C@H](C(=O)N(C)[C@@H](Cc1ccc(OC)cc1)C(=O)N(C)Cc1nccs1)C(C)C)C(C)C)C(C)C` ({Octanoyl(2R-Me,7,8-dehydro)}-[NMeA][NMeV]P[NMeV][NMeV][NMeY](Me)-X1), the outcome with KB and with LoVo was inactive.
`C=CCCCC[C@@H](C)C(=O)N(C)[C@@H](C)C(=O)N(C)[C@H](C(=O)N1CCC[C@H]1C(=O)N(C)[C@H](C(=O)N(C)[C@H](C(=O)N(C)[C@@H](Cc1ccc(OC)cc1)C(=O)N1CCC[C@H]1c1nccs1)C(C)C)C(C)C)C(C)C` ({Octanoyl(2R-Me,7,8-dehydro)}-[NMeA][NMeV]P[NMeV][NMeV][NMeY](Me)-X2): the result with KB and in the experiment with LoVo was inactive.
`C#CCCCC[C@@H](C)C(=O)N(C)[C@@H](C)C(=O)N(C)[C@H](C(=O)N(C)[C@H](C(=O)N(C)[C@H](C(=O)N(C)[C@H](C(=O)N1CCC[C@H]1c1nccs1)C(C)C)C(C)C)C(C)C)C(C)C` [APRAMIDE G] ({Oct7ynoyl(2R-Me)}-[NMeA][NMeV][NMeV][NMeV][NMeV]-X2): the IC50 was found to be 0.033 µg/mL (≈ 0.0398 µM) with KB and 0.011 µg/mL (≈ 0.0133 µM) in the experiment with LoVo.
